In patent publication US5631394A, “Pharmaceutically active ceramide-related compounds” (The Liposome Company, Inc., priority 1995, dated 1997):
Where a name gives a salt, the structure may show the parent alone. Read-outs that look alike come from different tables or passages of the source.

What was measured:
Type in all cases: cell-based
[1] = tested on: MCF 7/ADR cells; experiment: in vitro sensitivity at different drug exposure times, MCF 7/ADR; conditions: Homo sapiens, NCI/ADR-RES
Protocol: (§1) These studies were performed using a sulforrhodamine B assay (see Monks et al., J. Natl. Cancer Inst. (U.S.) 83:757 ([…])). Compounds were dissolved in ethanol. Results from these studies, presented in the following tables, are expressed as Gl50 values, that is, concentration of a drug (micromolar) required to inhibit growth of fifty percent of the cells.

[2] = tested on: LEWIS LUNG cells; experiment: sulforhodamine B cytotoxicity assay, 72 hour drug exposure, Lewis lung
[3] = tested on: A549 cells; experiment: in vitro sensitivity at different drug exposure times, A549; conditions: Homo sapiens
Protocol: as §1

[4] = tested on: A549 cells; experiment: sulforhodamine B cytotoxicity assay, 72 hour drug exposure, A549
[5] = tested on: MCF7 cells; experiment: sulforhodamine B cytotoxicity assay, 72 hour drug exposure, MCF7
[6] = tested on: MCF7/ADR cells; experiment: sulforhodamine B cytotoxicity assay, 72 hour drug exposure, MCF7/ADR
[7] = tested on: OVCAR 3 cells; experiment: sulforhodamine B cytotoxicity assay, 72 hour drug exposure, OVCAR 3
[8] = tested on: CAKI 1 cells; experiment: sulforhodamine B cytotoxicity assay, 72 hour drug exposure, CAKI 1
[9] = tested on: SKMEL 28 cells; experiment: sulforhodamine B cytotoxicity assay, 72 hour drug exposure, SKMEL 28
[10] = tested on: HT 29 cells; experiment: sulforhodamine B cytotoxicity assay, 72 hour drug exposure, HT 29
[11] = tested on: C3H10T1/2 cells; experiment: sulforhodamine B cytotoxicity assay, 72 hour drug exposure, C3H10T1/2; conditions: Mus musculus, C3H 10T1/2
Protocol: as §1

[12] = tested on: U937 cells; experiment: sulforhodamine B cytotoxicity assay, 72 hour drug exposure, U937; conditions: Homo sapiens, U-937
Protocol: as §1

[13] = tested on: RPMI 7666 cells; experiment: sulforhodamine B cytotoxicity assay, 72 hour drug exposure, RPMI 7666
Protocol: as §1

[14] = tested on: P388 cells; experiment: sulforhodamine B cytotoxicity assay, 72 hour drug exposure, P388; conditions: Mus musculus
Protocol: as §1

[15] = tested on: P-388 cells; experiment: % survival, trypan blue assay, with serum, P-388; conditions: bioactive lipid dose = 20 uM
[16] = tested on: RPMI-7666 cells; experiment: % survival, trypan blue exclusion assay, without serum, RPMI-7666; conditions: bioactive lipid dose = 20 uM, 2880 min
[17] = tested on: U-937 cells; experiment: % survival, trypan blue exclusion assay, without serum, U-937; conditions: bioactive lipid dose = 20 uM, 2880 min
[18] = tested on: P-388 cells; experiment: % survival, trypan blue exclusion assay, without serum, P-388; conditions: bioactive lipid dose = 20 uM, 2880 min
[19] = tested on: P388/ADR cells; experiment: sulforhodamine B cytotoxicity assay, 72 hour drug exposure, P388/ADR; conditions: Mus musculus
Protocol: as §1

[20] = tested on: RPMI-7666 cells; experiment: % survival, trypan blue assay, with serum, RPMI-7666; conditions: bioactive lipid dose = 20 uM
[21] = tested on: U-937 cells; experiment: % survival, trypan blue assay, with serum, U-937; conditions: bioactive lipid dose = 20 uM
[22] = Homo sapiens, NCI/ADR-RES, 72 h

Work on CCCCCCCCCCCCC/C=C/[C@@H](O)[C@H](COC(=O)CCC)NC(=O)CCCCC [1-Butyrate C6-Ceramide, 1-butyrate, C6-ceramide] yielded a GI50 ([1]; 1 hour pulse) of over 100 µM, a GI50 ([1]; 4 hour pulse) of 79.1 ± 5.3 µM and a GI50 ([1]; 8 hour pulse) of 44 ± 1.1 µM. For the same molecule, the GI50 ([1]; 24 hour pulse) was 20.8 ± 1.8 µM, the GI50 ([1]; 48 hour pulse) was 17.2 ± 0.1 µM and the GI50 ([1]; 72 hour continuous exposure) was 18.5 ± 0.4 µM. It also gave a GI50 ([2]; Lewis lung carcinoma, 72 h) of 6.4 ± 2.4 µM, a GI50 ([3]; 1 hour pulse) of over 100 µM and a GI50 ([3]; 4 hour pulse) of 52.9 ± 2.5 µM. It also gave a GI50 ([3]; 8 hour pulse) of 36.5 ± 0.8 µM, a GI50 ([3]; 24 hour pulse) of 8.6 ± 0.6 µM and a GI50 ([3]; 48 hour pulse) of 4.7 ± 0.1 µM. For the same molecule, the GI50 ([3]; 72 hour continuous exposure) was 5.5 ± 0.2 µM, the GI50 ([4]; Homo sapiens, A549, 72 h) was 6.2 ± 0.4 µM and the GI50 ([5]; Homo sapiens, MCF7, 72 h) was 17.9 ± 10 µM. For the same molecule, the GI50 [6, 22] was 37.8 ± 8.06 µM.

CCCCCCCCCCCCC/C=C/[C@@H](O)[C@H](CO)NCCCCCCCC gave a GI50 ([7]; Homo sapiens, OVCAR-3, 72 h) of 5.41 ± 0.13 µM, a GI50 ([8]; Homo sapiens, CAKI-1, 72 h) of 4.64 ± 0.07 µM and a GI50 ([1]; 1 hour pulse) of 34.3 ± 4.2 µM. The GI50 ([1]; 4 hour pulse) was 14.2 ± 1.2 µM, the GI50 ([1]; 8 hour pulse) was 8.9 ± 0.2 µM and the GI50 ([1]; 24 hour pulse) was 4.8 ± 0.1 µM. For the same molecule, the GI50 ([1]; 48 hour pulse) was 4.62 ± 0.1 µM, the GI50 ([1]; 72 hour continuous exposure) was 5 ± 0.1 µM and the GI50 ([2]; Lewis lung carcinoma, 72 h) was 5.05 ± 0.02 µM. It also gave a GI50 ([3]; 1 hour pulse) of 31.2 ± 5 µM, a GI50 ([3]; 4 hour pulse) of 12.8 ± 1 µM and a GI50 ([3]; 8 hour pulse) of 6.7 ± 0.2 µM. It also gave a GI50 ([3]; 24 hour pulse) of 5 ± 0.1 µM, a GI50 ([3]; 48 hour pulse) of 4.8 ± 0.1 µM and a GI50 ([3]; 72 hour continuous exposure) of 5 µM. It also gave a GI50 ([4]; Homo sapiens, A549, 72 h) of 4.91 ± 0.01 µM, a GI50 ([9]; Homo sapiens, SK-MEL-28, 72 h) of 4.96 ± 0.03 µM and a GI50 ([5]; Homo sapiens, MCF7, 72 h) of 4.88 ± 0.11 µM. The GI50 [6, 22] was 4.88 ± 0.04 µM and the GI50 ([10]; Homo sapiens, HT-29, 72 h) was 5.72 ± 0.24 µM.

With CCCCCCCCCCCCCC(O)C(O)[C@@H](O)[C@H](CO)NC(=O)CCCCC (stereo partly drawn) [4,5-Diol C6-Ceramide, 4,5-diol C6-Cer] the GI50 ([7]; Homo sapiens, OVCAR-3, 72 h) was 38.2 ± 2.3 µM, the GI50 ([2]; Mus musculus, Lewis lung carcinoma, 72 h) was 15.2 µM and the GI50 ([4]; Homo sapiens, A549, 72 h) was 25.1 ± 0.3 µM. The GI50 ([5]; Homo sapiens, MCF7, 72 h) was 20.7 ± 0.1 µM, the GI50 [6, 22] was 28.3 ± 1.1 µM and the GI50 ([10]; Homo sapiens, HT-29, 72 h) was 14.6 ± 0.4 µM.

CCCCCCCCCCCCC/C=C/[C@@H](O)[C@H](CO)NCCCCCCCC [N-C8 Sphingosine HCl Salt] was tested, and the GI50 ([7]; HCl Salt) was 5.23 ± 0.01 µM, the GI50 ([8]; HCl Salt) was 4.47 ± 0.01 µM and the GI50 ([2]; HCl Salt) was 4.82 ± 0.18 µM. For the same molecule, the GI50 ([4]; HCl Salt) was 4.97 ± 0.19 µM, the GI50 ([9]; HCl Salt) was 4.95 ± 0.02 µM and the GI50 ([5]; HCl Salt) was 4.9 ± 0.02 µM. It also gave a GI50 ([6]; HCl Salt) of 4.82 ± 0.18 µM and a GI50 ([10]; HCl Salt) of 5.78 µM.

Work on CCCCCCCCCCCCC/C=C/C(=O)[C@H](COC(C)=O)NC(=O)CCCCC [1-Acetate-3-one C6-Cer, 1-acetate-3-one C6-Cer] yielded a GI50 ([7]; Homo sapiens, OVCAR-3, 72 h) of 15.3 ± 0.1 µM, a GI50 ([2]; Lewis lung carcinoma, 72 h) of 14.5 ± 0.1 µM and a GI50 ([4]; Homo sapiens, A549, 72 h) of 14.4 ± 0.1 µM. It also gave a GI50 ([5]; Homo sapiens, MCF7, 72 h) of 6.7 ± 0.1 µM, a GI50 [6, 22] of 14.7 ± 0.1 µM and a GI50 ([10]; Homo sapiens, HT-29, 72 h) of 13.9 ± 0.2 µM.

Work on CCCCCCCCCCCCC/C=C/[C@@H](O[Si](C)(C)C(C)(C)C)[C@H](CO)NC(=O)CCCCC [3-TBDMS C6-Ceramide, 3-TBDMS C6-Cer] yielded a GI50 ([2]; Lewis lung carcinoma) of over 200 µM, a GI50 [11] of over 200 µM and a GI50 ([4]; Homo sapiens) of over 200 µM. The GI50 [12] was over 200 µM and the GI50 [13] was over 200 µM.

For CCCCCCCCCCCCC/C=C/[C@@H](O)[C@H](CO)NC(=O)CCCCC [C6-Ceramide, C6-ceramide, reference compound], the GI50 ([7]; Homo sapiens, OVCAR-3, 72 h) was 15.2 ± 1.77 µM, the GI50 ([8]; Homo sapiens, CAKI-1, 72 h) was 6.04 ± 0.23 µM and the GI50 ([8]; listed as Cer-C6) was 5.88 ± 0.1 µM. The GI50 [14] was 6.24 ± 0.3 µM, the “% Survival (by trypan blue assay)” value [15] was 84.5% and the GI50 ([2]; Lewis lung carcinoma, 72 h) was 9.6 ± 4.4 µM. It also gave a GI50 ([2]; listed as Cer-C6) of 5.81 µM, a GI50 [11] of 14 ± 2.5 µM and a GI50 ([4]; Homo sapiens, A549, 72 h) of 12 ± 4.8 µM. The GI50 ([4]; listed as Cer-C6) was 8.08 ± 0.06 µM, the “% Survival (by trypan blue exclusion assay)” value [16] was 79% and the “% Survival (by trypan blue exclusion assay)” value [17] was 82.6%. The GI50 ([9]; Homo sapiens, SK-MEL-28, 72 h) was 13.3 ± 2.51 µM, the GI50 ([9]; listed as Cer-C6) was 11.55 ± 0.07 µM and the “% Survival (by trypan blue exclusion assay)” value [18] was 55.4%. The GI50 ([5]; Homo sapiens, MCF7, 72 h) was 24.2 ± 8.5 µM, the GI50 ([5]; listed as Cer-C6) was 12.7 ± 0.14 µM and the GI50 [19] was 12.7 ± 1.7 µM. It also gave a GI50 [6] of 36 ± 0.88 µM, a GI50 [6, 22] of 36 ± 0.88 µM and a GI50 ([6]; listed as Cer-C6) of 26.1 ± 0.85 µM. For the same molecule, the GI50 ([10]; Homo sapiens, HT-29, 72 h) was 4 ± 0.2 µM, the GI50 ([10]; listed as Cer-C6) was 4.67 ± 0.19 µM and the “% Survival (by trypan blue assay)” value [20] was 89.2%. For the same molecule, the GI50 [12] was 7 ± 1.7 µM, the “% Survival (by trypan blue assay)” value [21] was 97% and the GI50 [13] was 8.5 ± 3.5 µM.

For CCCCCCCCCCCCC/C=C/[C@@H](O)[C@@H](N)CO [Sphingosine, reference compound], the GI50 ([7]; Homo sapiens) was 44.6 ± 0.9 µM, the GI50 ([8]; Homo sapiens) was 39.7 ± 0.8 µM and the GI50 ([2]; Lewis lung carcinoma) was 12.2 ± 0.1 µM. For the same molecule, the GI50 ([4]; Homo sapiens) was 20.2 ± 0.8 µM, the GI50 ([9]; Homo sapiens, SK-MEL-28) was 15.6 ± 1 µM and the GI50 ([5]; Homo sapiens) was 20.4 ± 0.4 µM. It also gave a GI50 ([6]; Homo sapiens, NCI/ADR-RES) of 19.8 µM and a GI50 ([10]; Homo sapiens) of 19.3 ± 0.1 µM.
